Laboratory results as given in PubChem BioAssay AID1259407 (Chemical Carcinogenesis Research Information System (CCRIS), 2018).
Calls of active or inactive are those of the source. The rule behind the calls is not given here.

Test system: CCRIS mutagenicity, Ames/micronucleus/aberration tests
Experiment: CCRIS mutagenicity studies
[1] = Test System: AMES SALMONELLA TYPHIMURIUM, Strain/Indicator: TA98, Metabolic Activation: NONE, Method: STANDARD PLATE
[2] = Test System: AMES SALMONELLA TYPHIMURIUM, Strain/Indicator: TA98, Metabolic Activation: RAT, LIVER, S-9, AROCLOR 1254, Method: STANDARD PLATE
[3] = Test System: AMES SALMONELLA TYPHIMURIUM, Strain/Indicator: TA100, Metabolic Activation: NONE, Method: STANDARD PLATE
[4] = Test System: AMES SALMONELLA TYPHIMURIUM, Strain/Indicator: TA100, Metabolic Activation: RAT, LIVER, S-9, AROCLOR 1254, Method: STANDARD PLATE
[5] = Test System: AMES SALMONELLA TYPHIMURIUM, Strain/Indicator: TA1535, Metabolic Activation: NONE, Method: STANDARD PLATE
[6] = Test System: AMES SALMONELLA TYPHIMURIUM, Strain/Indicator: TA1535, Metabolic Activation: RAT, LIVER, S-9, AROCLOR 1254, Method: STANDARD PLATE
[7] = Test System: AMES SALMONELLA TYPHIMURIUM, Strain/Indicator: TA1537, Metabolic Activation: NONE, Method: STANDARD PLATE
[8] = Test System: AMES SALMONELLA TYPHIMURIUM, Strain/Indicator: TA1537, Metabolic Activation: RAT, LIVER, S-9, AROCLOR 1254, Method: STANDARD PLATE
[9] = Test System: AMES SALMONELLA TYPHIMURIUM, Strain/Indicator: TA1538, Metabolic Activation: NONE, Method: STANDARD PLATE
[10] = Test System: AMES SALMONELLA TYPHIMURIUM, Strain/Indicator: TA1538, Metabolic Activation: RAT, LIVER, S-9, AROCLOR 1254, Method: STANDARD PLATE
[11] = Test System: AMES SALMONELLA TYPHIMURIUM, Strain/Indicator: TA100, Metabolic Activation: NONE, Method: PREINCUBATION
[12] = Test System: AMES SALMONELLA TYPHIMURIUM, Strain/Indicator: TA98, Metabolic Activation: NONE, Method: PREINCUBATION
[13] = Test System: AMES SALMONELLA TYPHIMURIUM, Strain/Indicator: TA98, Metabolic Activation: RAT, LIVER, S-9, AROCLOR, Method: PREINCUBATION
[14] = Test System: AMES SALMONELLA TYPHIMURIUM, Strain/Indicator: TA100, Metabolic Activation: RAT, LIVER, S-9, AROCLOR, Method: PREINCUBATION
[15] = Test System: AMES SALMONELLA TYPHIMURIUM, Strain/Indicator: TA102, Metabolic Activation: NONE, Method: PREINCUBATION
[16] = Test System: AMES SALMONELLA TYPHIMURIUM, Strain/Indicator: TA102, Metabolic Activation: RAT, LIVER, S-9, AROCLOR, Method: PREINCUBATION
[17] = Test System: UDS RAT HEPATOCYTES, Strain/Indicator: THY INCORP, Metabolic Activation: NONE

Row | SMILES | mutagenic call [1] | mutagenic call [2] | mutagenic call [3] | mutagenic call [4] | mutagenic call [5] | mutagenic call [6] | mutagenic call [7] | mutagenic call [8] | also measured
1 | O=[N+]([O-])C1=Cc2ccc3ccc4cccc5cc1c2c3c45 | active; positive | active; positive | active; positive | inactive; negative | inactive; negative | inactive; negative | active; positive | active; positive | mutagenic call [9]: active; positive; mutagenic call [10]: active; positive
2 | O=[N+]([O-])c1ccc2c(c1)Oc1cc(Cl)c(Cl)cc1O2 | active; positive | – | active; positive | – | – | – | – | – | mutagenic call (Test System: AMES SALMONELLA TYPHIMURIUM, Strain/Indicator: TA98, Metabolic Activation: RAT, LIVER, S-9, AROCLOR, Method: STANDARD PLATE): active; positive; mutagenic call (Test System: AMES SALMONELLA TYPHIMURIUM, Strain/Indicator: TA100, Metabolic Activation: RAT, LIVER, S-9, AROCLOR, Method: STANDARD PLATE): active; positive
3 | O=[N+]([O-])C1=Cc2cccc3c2c1cc1ccc2ccccc2c13 | active; positive | inactive; negative | inactive; negative | active; positive | inactive; negative | inactive; negative | active; positive | active; positive | mutagenic call [9]: active; positive; mutagenic call [10]: active; positive
4 | BrCC1CO1 (stereo not given) | – | – | – | – | – | – | – | – | mutagenic call (Test System: AMES SALMONELLA TYPHIMURIUM, Strain/Indicator: TA100, Metabolic Activation: HAMSTER, LIVER, S-9, AROCLOR 1254 (10%), Method: PREINCUBATION): active; positive; mutagenic call [11]: active; positive; mutagenic call (Test System: AMES SALMONELLA TYPHIMURIUM, Strain/Indicator: TA100, Metabolic Activation: RAT, LIVER, S-9, AROCLOR 1254 (10%), Method: PREINCUBATION): active; positive; mutagenic call (Test System: AMES SALMONELLA TYPHIMURIUM, Strain/Indicator: TA1535, Metabolic Activation: HAMSTER, LIVER, S-9, AROCLOR 1254 (10%), Method: PREINCUBATION): active; positive; mutagenic call (Test System: AMES SALMONELLA TYPHIMURIUM, Strain/Indicator: TA1535, Metabolic Activation: NONE, Method: PREINCUBATION): active; positive; mutagenic call (Test System: AMES SALMONELLA TYPHIMURIUM, Strain/Indicator: TA1535, Metabolic Activation: RAT, LIVER, S-9, AROCLOR 1254 (10%), Method: PREINCUBATION): active; positive
5 | O=Nn1cc(CC(O)C(=O)O)c2ccccc21 (stereo not given) | active; positive | – | – | – | – | – | – | – | –
6 | Oc1cc2ccccc2c2ccc3ccccc3c12 | inactive; negative | inactive; negative | inactive; negative | inactive; negative | – | – | – | – | –
7 | CCC(C(C)O)[N+](=O)[O-] (stereo not given) | – | – | – | – | – | – | – | – | mutagenic call [12]: inactive; negative; mutagenic call [13]: inactive; negative; mutagenic call [11]: inactive; negative; mutagenic call [14]: inactive; negative; mutagenic call [15]: inactive; negative; mutagenic call [16]: inactive; negative
8 | CCOP(=O)(OCC)N1[C@@H]2c3ccccc3-c3ccccc3[C@@H]21 (stereo not given in full) | – | – | active; positive | – | – | – | – | – | mutagenic call (Test System: CHINESE HAMSTER V-79, Strain/Indicator: V-79/6-THIOGUANINE, Metabolic Activation: NONE, Method: STANDARD PLATE): active; positive
9 | CSC(C)(C)/C=N/O | inactive; negative | inactive; negative | inactive; negative | inactive; negative | inactive; negative | inactive; negative | inactive; negative | inactive; negative | mutagenic call (End Point: IN VITRO CHROMOSOMAL ABERRATIONS, Test System: CHO-LB CELLS, Metabolic Activation: NONE): inactive; negative; mutagenic call (End Point: IN VITRO CHROMOSOMAL ABERRATIONS, Test System: CHO-LB CELLS, Metabolic Activation: RAT, LIVER, S-9, AROCLOR 1254): inactive; negative; mutagenic call (Test System: AMES SALMONELLA TYPHIMURIUM, Strain/Indicator: TA98, Metabolic Activation: HAMSTER, LIVER, S-9, AROCLOR 1254, Method: STANDARD PLATE): inactive; negative; mutagenic call (Test System: AMES SALMONELLA TYPHIMURIUM, Strain/Indicator: TA100, Metabolic Activation: HAMSTER, LIVER, S-9, AROCLOR 1254, Method: STANDARD PLATE): inactive; negative; mutagenic call (Test System: AMES SALMONELLA TYPHIMURIUM, Strain/Indicator: TA1535, Metabolic Activation: HAMSTER, LIVER, S-9, AROCLOR 1254, Method: STANDARD PLATE): inactive; negative; mutagenic call (Test System: AMES SALMONELLA TYPHIMURIUM, Strain/Indicator: TA1537, Metabolic Activation: HAMSTER, LIVER, S-9, AROCLOR 1254, Method: STANDARD PLATE): inactive; negative; mutagenic call (Test System: AMES SALMONELLA TYPHIMURIUM, Strain/Indicator: TA1538, Metabolic Activation: HAMSTER, LIVER, S-9, AROCLOR 1254, Method: STANDARD PLATE): inactive; negative; mutagenic call [9]: inactive; negative; mutagenic call [10]: inactive; negative; mutagenic call (Test System: MOUSE LYMPHOMA, Strain/Indicator: L5178Y (TK+/TK-), Metabolic Activation: NONE, Method: SUSPENSION/PLATE): inactive; negative. reevaluation of results: equivocal; mutagenic call (Test System: MOUSE LYMPHOMA, Strain/Indicator: L5178Y (TK+/TK-), Metabolic Activation: RAT, LIVER, S-9, AROCLOR 1254, Method: SUSPENSION/PLATE): inactive; negative. reevaluation of results: negative
10 | CCCCCC(C)[N+](=O)[O-] (stereo not given) | – | – | – | – | – | – | – | – | mutagenic call [17]: active; positive
11 | CC(=O)C(Cl)(Cl)Cl | active; positive | active; positive | active; positive | active; positive | active; positive | active; positive | inactive; negative | inactive; negative | mutagenic call (Test System: AMES SALMONELLA TYPHIMURIUM, Strain/Indicator: TA100, Metabolic Activation: NONE, Method: FLUCTUATION TEST): active; positive; mutagenic call (Test System: AMES SALMONELLA TYPHIMURIUM, Strain/Indicator: TA100, Metabolic Activation: RAT, LIVER, S-9, AROCLOR 1254, Method: FLUCTUATION TEST): inactive; negative
12 | CCCCC[N+](=O)[O-] | – | – | – | – | – | – | – | – | mutagenic call [12]: inactive; negative; mutagenic call [13]: inactive; negative; mutagenic call [11]: inactive; negative; mutagenic call [14]: inactive; negative; mutagenic call [15]: inactive; negative; mutagenic call [16]: inactive; negative; mutagenic call [17]: inactive; negative
